Results taken from patent US20110105509A1 (Wyeth, LLC, priority 2009, published 2011).

molecular target: T1, CRTH2 (Homo sapiens, UniProt Q9Y5Y4); assay: FRET based competitive immunoassay (cAMP) in CRTH2 expressing CHO cells; assay type: cell-based; details: CRTH2 expressing CHO cells incubated with forskolin and PGD2; Eu3+ cryptate-labeled anti-cAMP and d2-labeled cAMP
T1 construct: expressed in transfected cells; host or cells: CHO cells
T1 sequence (Q9Y5Y4 1-395): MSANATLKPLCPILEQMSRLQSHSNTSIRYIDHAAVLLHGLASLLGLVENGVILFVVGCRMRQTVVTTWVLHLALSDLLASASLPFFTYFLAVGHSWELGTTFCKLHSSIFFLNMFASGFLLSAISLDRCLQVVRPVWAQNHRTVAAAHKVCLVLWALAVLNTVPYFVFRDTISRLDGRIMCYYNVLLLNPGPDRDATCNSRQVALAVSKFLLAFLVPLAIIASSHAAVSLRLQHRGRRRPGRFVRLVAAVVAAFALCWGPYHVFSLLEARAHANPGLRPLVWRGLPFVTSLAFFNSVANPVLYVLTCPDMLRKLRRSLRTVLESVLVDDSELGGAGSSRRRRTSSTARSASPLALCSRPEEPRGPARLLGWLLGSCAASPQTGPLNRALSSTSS
Protocol: FRET Assay: To evaluate potency compounds were tested in a FRET based competitive immunoassay in which CRTH2 expressing CHO cells were incubated in the presence of forskolin and PGD2 along with Eu3+ cryptate-labeled anti-cAMP and d2-labeled cAMP.

IC50	SMILES
137 nM	Cc1c(Cc2ccc(=O)n(C(C)C)c2)c2cc(F)ccc2n1CC(=O)O [Example 27, 2-(5-fluoro-3-((1-isopropyl-6-oxo-1,6-dihydropyridin-3-yl)methyl)-2-methyl-1H-indol-1-yl)acetic acid]
17 nM	Cc1c(Cc2ccc(=O)n(Cc3cccc(F)c3F)c2)c2cc(F)ccc2n1CC(=O)O [Example 28, 2-(3-((1-(2,3-Difluorobenzyl)-6-oxo-1,6-dihydropyridin-3-yl)methyl)-5-fluoro-2-methyl-1H-indol-1-yl)acetic acid]
72 nM	Cc1c(Cc2ccc(=O)n(Cc3cccc(F)c3F)c2)c2ccccc2n1CC(=O)O [Example 29]
153 nM	Cc1c(Cc2ccc(=O)n(Cc3ccc(F)c(F)c3)c2)c2ccccc2n1CC(=O)O [Example 30, 2-(3-((1-(3,4-Difluorobenzyl)-6-oxo-1,6-dihydropyridin-3-yl)methyl)-2-methyl-1H-indol-1-yl)acetic acid]
41 nM	Cc1c(Cc2ccc(=O)n(Cc3ccccc3F)c2)c2ccccc2n1CC(=O)O [Example 31, 2-(3-((1-(2-Fluorobenzyl)-6-oxo-1,6-dihydropyridin-3-yl)methyl)-2-methyl-1H-indol-1-yl)acetic acid]
8 nM	Cc1c(Cc2ccc(=O)n(Cc3ccccc3F)c2)c2cc(F)ccc2n1CC(=O)O [Example 32, 2-(5-Fluoro-3-((1-(2-fluorobenzyl)-6-oxo-1,6-dihydropyridin-3-yl)methyl)-2-methyl-1H-indol-1-yl)acetic acid]
11 nM	Cc1c(Cc2ccc(=O)n(Cc3ccc(F)c(F)c3)c2)c2cc(F)ccc2n1CC(=O)O [Example 33, 2-(3-((1-(3,4-difluorobenzyl)-6-oxo-1,6-dihydropyridin-3-yl)methyl)-5-fluoro-2-methyl-1H-indol-1-yl)acetic acid]
54 nM	Cc1c(Cc2ccc(=O)n(Cc3cccc(F)c3)c2)c2ccccc2n1CC(=O)O [Example 34, 2-(3-((1-(3-Fluorobenzyl)-6-oxo-1,6-dihydropyridin-3-yl)methyl)-2-methyl-1H-indol-1-yl)acetic acid]
65 nM	Cc1c(Cc2ccc(=O)n(Cc3cc(F)cc(F)c3)c2)c2ccccc2n1CC(=O)O [Example 35, 2-(3-((1-(3,5-Difluorobenzyl)-6-oxo-1,6-dihydropyridin-3-yl)methyl)-2-methyl-1H-indol-1-yl)acetic acid]
2 nM	Cc1c(Cc2ccc(=O)n(Cc3cc(F)cc(F)c3)c2)c2cc(F)ccc2n1CC(=O)O [Example 36, 2-(3-((1-(3,5-Difluorobenzyl)-6-oxo-1,6-dihydropyridin-3-yl)methyl)-5-fluoro-2-methyl-1H-indol-1-yl)acetic acid]
35 nM	Cc1c(Cc2ccc(=O)n(Cc3c(F)cccc3F)c2)c2ccccc2n1CC(=O)O [Example 37, 2-(3-((1-(2,6-Difluorobenzyl)-6-oxo-1,6-dihydropyridin-3-yl)methyl)-2-methyl-1H-indol-1-yl)acetic acid]
7 nM	Cc1c(Cc2ccc(=O)n(Cc3c(F)cccc3F)c2)c2cc(F)ccc2n1CC(=O)O [Example 38, 2-(3-((1-(2,6-Difluorobenzyl)-6-oxo-1,6-dihydropyridin-3-yl)methyl)-5-fluoro-2-methyl-1H-indol-1-yl)acetic acid]
4 nM	Cc1c(Cc2ccc(=O)n(Cc3cccc(F)c3)c2)c2cc(F)ccc2n1CC(=O)O [Example 39, 2-(5-Fluoro-3-((1-(3-fluorobenzyl)-6-oxo-1,6-dihydropyridin-3-yl)methyl)-2-methyl-1H-indol-1-yl)acetic acid]
30 nM	Cc1c(Cc2ccc(=O)n(Cc3ccc(F)cc3)c2)c2ccccc2n1CC(=O)O [Example 40, 2-(3-((1-(4-Fluorobenzyl)-6-oxo-1,6-dihydropyridin-3-yl)methyl)-2-methyl-1H-indol-1-yl)acetic acid]
3 nM	Cc1c(Cc2ccc(=O)n(Cc3ccc(F)cc3)c2)c2cc(F)ccc2n1CC(=O)O [Example 41, 2-(5-Fluoro-3-((1-(4-fluorobenzyl)-6-oxo-1,6-dihydropyridin-3-yl)methyl)-2-methyl-1H-indol-1-yl)acetic acid]
7 nM	Cc1c(Cc2ccc(=O)n(Cc3ccc(F)cc3F)c2)c2cc(Cl)ccc2n1CC(=O)O [Example 42, 2-(5-Chloro-3-((1-(2,4-difluorobenzyl)-6-oxo-1,6-dihydropyridin-3-yl)-methyl)-2-methyl-1H-indol-1-yl)acetic acid]
9 nM	Cc1c(Cc2ccc(=O)n(Cc3cccc(F)c3F)c2)c2cc(Cl)ccc2n1CC(=O)O [Example 43, 2-(5-Chloro-3-((1-(2,3-difluorobenzyl)-6-oxo-1,6-dihydropyridin-3-yl)-methyl)-2-methyl-1H-indol-1-yl)acetic acid]

IC50	SMILES
5 nM	Cc1c(Cc2ccc(=O)n(Cc3cccc(F)c3)c2)c2cc(Cl)ccc2n1CC(=O)O [Example 45, 2-(5-Chloro-3-((1-(3-fluorobenzyl)-6-oxo-1,6-dihydropyridin-3-yl)methyl)-2-methyl-1H-indol-1-yl)acetic acid]
55 nM	Cc1c(Cc2ccc(=O)n(CC(F)(F)F)c2)c2cc(F)ccc2n1CC(=O)O [Example 46]
> 2000 nM	Cc1c(-c2nn(Cc3ccccc3)c(=O)c3ccccc23)c2ccccc2n1CC(N)=O [Example 47, 2-(3-(3-Benzyl-4-oxo-3,4-dihydrophthalazin-1-yl)-2-methyl-1H-indol-1-yl)-acetamide]
> 2000 nM	Cc1c(-c2nn(Cc3ccccc3)c(=O)c3ccccc23)c2ccccc2n1CC(=O)N(C)C [Example 48, 2-(3-(3-Benzyl-4-oxo-3,4-dihydrophthalazin-1-yl)-2-methyl-1H-indol-1-yl)-N,N-dimethylacetamide]
> 2000 nM	Cc1c(-c2nn(Cc3ccccc3)c(=O)c3ccccc23)c2ccccc2n1CC(=O)N1CCCC1 [Example 49, 2-Benzyl-4-(2-methyl-1-(2-oxo-2-(pyrrolidin-1-yl)ethyl)-1H-indol-3-yl)phthalazin-1(2H)-one]
> 1500 nM	Cc1c(-c2nn(Cc3ccccc3)c(=O)c3ccccc23)c2ccccc2n1CC(=O)NS(C)(=O)=O [Example 50, 2-(3-(3-Benzyl-4-oxo-3,4-dihydrophthalazin-1-yl)-2-methyl-1H-indol-1-yl)-N-(methylsulfonyl)acetamide]
> 2000 nM	Cc1c(-c2nn(Cc3ccccc3)c(=O)c3ccccc23)c2ccccc2n1Cc1nn[nH]n1 [Example 51, 4-(1-((2H-Tetrazol-5-yl)methyl)-2-methyl-1H-indol-3-yl)-2-benzyl-phthalazin-1(2H)-one]
> 2000 nM	Cc1c(-c2nn(Cc3ccccc3)c(=O)c3ccccc23)c2ccccc2n1CCO [Example 52, 2-Benzyl-4-(1-(2-hydroxyethyl)-2-methyl-1H-indol-3-yl)phthalazin-1(2H)-one]
55 nM	Cc1c(Cc2ccc(=O)n(CC(F)(F)F)c2)c2cc(Cl)ccc2n1CC(=O)O [Example 53, 2-(5-Chloro-2-methyl-3-((6-oxo-1-(2,2,2-trifluoroethyl)-1,6-dihydropyridin-3-yl)methyl)-1H-indol-1-yl)acetic acid]
329 nM	Cc1c(Cc2ccc(=O)n(CCCC(F)(F)F)c2)c2cc(F)ccc2n1CC(=O)O [Example 54, 2-(5-Fluoro-2-methyl-3-((6-oxo-1-(4,4,4-trifluorobutyl)-1,6-dihydropyridin-3-yl)methyl)-1H-indol-1-yl)acetic acid]
> 2000 nM	CC(=O)Nc1cccc2c1c(Cc1ccc(=O)n(Cc3ccc(F)cc3F)n1)c(C)n2CC(=O)O [Example 55, 2-(4-Acetamido-3-((1-(2,4-difluorobenzyl)-6-oxo-1,6-dihydropyridazin-3-yl)-methyl)-2-methyl-1H-indol-1-yl)acetic acid]
5 nM	Cc1c(CC2=NN(Cc3ccc(F)cc3F)C(=O)CC2)c2cc(F)ccc2n1CC(=O)O [Example 56, 2-(3-((1-(2,4-Difluorobenzyl)-6-oxo-1,4,5,6-tetrahydropyridazin-3-yl)methyl)-5-fluoro-2-methyl-1H-indol-1-yl)acetic acid]
5 nM	Cc1c(CC2=NN(CC(F)(F)F)C(=O)CC2)c2cc(F)ccc2n1CC(=O)O [Example 57, 2-(5-Fluoro-2-methyl-3-((6-oxo-1-(2,2,2-trifluoroethyl)-1,4,5,6-tetrahydropyridazin-3-yl)-methyl)-1H-indol-1-yl)acetic acid]
18 nM	Cc1c(CC2=NN(CCCC(F)(F)F)C(=O)CC2)c2cc(F)ccc2n1CC(=O)O [Example 58, 2-(5-Fluoro-2-methyl-3-((6-oxo-1-(4,4,4-trifluorobutyl)-1,4,5,6-tetrahydro-pyridazin-3-yl)methyl)-1H-indol-1-yl)acetic acid]
12 nM	Cc1c(-c2nn(Cc3cc(F)ccc3F)c(=O)c3ccccc23)c2cc(Cl)ccc2n1CC(=O)O [Example 59, 2-(5-Chloro-3-(3-(2,5-difluorobenzyl)-4-oxo-3,4-dihydrophthalazin-1-yl)-2-methyl-1H-indol-1-yl)acetic acid]
11 nM	Cc1c(-c2nn(Cc3cc(F)c(F)cc3F)c(=O)c3ccccc23)c2cc(Cl)ccc2n1CC(=O)O [Example 60, 2-(5-chloro-2-methyl-3-(4-oxo-3-(2,4,5-trifluorobenzyl)-3,4-dihydro-phthalazin-1-yl)-1H-indol-1-yl)acetic acid]
11 nM	Cc1c(-c2nn(Cc3ccc(F)cc3F)c(=O)c3ccccc23)c2cc(Cl)ccc2n1CC(=O)O [Example 61, 2-(5-chloro-3-(3-(2,4-difluorobenzyl)-4-oxo-3,4-dihydrophthalazin-1-yl)-2-methyl-1H-indol-1-yl)acetic acid]
